In patent US7960410B2, “Method for treating insulin resistance, abdominal obesity, hypertension, hyperinsulinemia, and elevated blood lipids with a cortisol inhibitor” (Cortendo AB, priority 1994, dated 2011):
Values joined by “and” are separate entries in the source; they are usually repeats but may differ in a detail not shown here. Equal values may be shown once. “Also recorded” adds a separate entry of the source.

System: women with diabetes mellitus type II
Assay: Clinical tests of women with diabetes mellitus type II treated with ketoconazole
Assay type: in vivo, human
Conditions: for Serum-ASAT / Serum-ALAT / GIR (glucose infusion rate during euglycemic glucose clamp), indicating insulin sensitivity / Fasting serum total cholesterol / Diastolic blood pressure measured after 5 min. in supine position, 2 measurements averaged / Systolic blood pressure measured after 5 min. in supine position, 2 measurements averaged / Fasting blood glucose: after treatment
Protocol: We have investigated a group of people with diabetes mellitus type II.
Group 1 consists of 3 patients (mean age: 46 years) treated with ketoconazole for 2 weeks, administered orally 22:00 in the evening in the dose of 400 mg.
Group 2 consists of 5 patients (mean age: 51 years) treated with ketoconazole for 6 weeks, administered orally 22:00 in the evening in the dose of 400 mg. Results are expressed as mean values within groups.

[1] = diabetes mellitus type II patients, after vs before treatment

With `CC(=O)N1CCN(c2ccc(OCC3COC(Cn4ccnc4)(c4ccc(Cl)cc4Cl)O3)cc2)CC1` (stereo not shown) [ketoconazole] the Serum-ASAT (Group 1: 400 mg orally 22:00 for 2 weeks, group mean (before: 0.36)) was 0.33 μkat/L, the Serum-ALAT (Group 1: 400 mg orally 22:00 for 2 weeks, group mean (before: 0.61)) was 0.52 μkat/L and the “GIR (glucose infusion rate during euglycemic glucose clamp), indicating insulin sensitivity” value (Group 1: 400 mg orally 22:00 for 2 weeks, group mean (before: 0.9)) was 1.85 mg glucose per minute divided by lean body mass. The “Fasting serum total cholesterol” value (Group 1: 400 mg orally 22:00 for 2 weeks, group mean (before: 5.80)) was 5.67 mmol/L, the “Diastolic blood pressure measured after 5 min. in supine position, 2 measurements averaged” value (Group 1: 400 mg orally 22:00 for 2 weeks, group mean (before: 70)) was 70 mm Hg and the “Systolic blood pressure measured after 5 min. in supine position, 2 measurements averaged” value (Group 1: 400 mg orally 22:00 for 2 weeks, group mean (before: 140)) was 135 mm Hg. It also gave a Fasting blood glucose (Group 1: 3 patients, 400 mg orally 22:00 for 2 weeks, group mean (before: 10.20)) of 8.77 mmol/L, a Serum-ASAT (Group 2: 400 mg orally 22:00 for 6 weeks, group mean (before: 0.26)) of 0.25 μkat/L and a Serum-ALAT (Group 2: 400 mg orally 22:00 for 6 weeks, group mean (before: 0.40)) of 0.37 μkat/L. For the same compound, the “GIR (glucose infusion rate during euglycemic glucose clamp), indicating insulin sensitivity” value (Group 2: 400 mg orally 22:00 for 6 weeks, group mean (before: 2.97)) was 4.32 mg glucose per minute divided by lean body mass, the “Fasting serum total cholesterol” value (Group 2: 400 mg orally 22:00 for 6 weeks, group mean (before: 4.80)) was 4.10 mmol/L and the “Diastolic blood pressure measured after 5 min. in supine position, 2 measurements averaged” value (Group 2: 400 mg orally 22:00 for 6 weeks, group mean (before: 75)) was 72 mm Hg. The “Systolic blood pressure measured after 5 min. in supine position, 2 measurements averaged” value (Group 2: 400 mg orally 22:00 for 6 weeks, group mean (before: 125)) was 123 mm Hg, the Fasting blood glucose (Group 2: 5 patients, 400 mg orally 22:00 for 6 weeks, group mean (before: 7.20)) was 7.10 mmol/L and the “Effect on blood pressure (in words)” value [1] was “decreasing blood pressure values”. The “Effect on insulin sensitivity / insulin resistance (in words), euglycemic glucose clamp” value [1] was “a reduction of the insulin insensitivity (resistance); also recorded: improved insulin sensitivity; also recorded: a remarkable improvement of insulin sensitivity”, the “Effect on plasma cholesterol levels (in words)” value [1] was “Reduced cholesterol levels in the plasma” and the “Effect on blood glucose (in words)” value (diabetes mellitus type II patients, after vs before treatment for 2 and 6 weeks, fasting or 2 hours after i.v. glucose infusion) was “lower blood glucose after treatment compared to before treatment; also recorded: a decrease in blood glucose”. For the same compound, the “Blood glucose 2 hours after start of an i.v. glucose infusion” value (human, in vivo) was 7.90 mmol/L and 5.76 mmol/L.
